Data from patent US20040063662A1, “Selenophene anti-tumor agents” (priority 1996, published 2004).

Tests used:
IGROV1 = assay: NCI human tumor cell panel: IGROV1 (Ovarian Cancer); assay type: cell-based; details: IGROV-1, IGROV1, Ovarian Cancer
NCI-H226 = assay: NCI human tumor cell panel: NCI-H226 (Non-Small Cell Lung Cancer); assay type: cell-based; details: NCI-H226, Non-Small Cell Lung Cancer
T-47D = assay: NCI human tumor cell panel: T-47D (Breast Cancer); assay type: cell-based; details: T47D, Breast Cancer, read-out: Log10 TGI (converted)
SK-OV-3 = assay: NCI human tumor cell panel: SK-OV-3 (Ovarian Cancer); assay type: cell-based; details: SK-OV-3, Ovarian Cancer
HL-60(TB) = assay: NCI human tumor cell panel: HL-60(TB) (Leukemia); assay type: cell-based; details: Leukemia, read-out: Log10 GI50 (converted)
LOX IMVI = assay: NCI human tumor cell panel: LOX IMVI (Melanoma); assay type: cell-based; details: Melanoma
OVCAR-5 = assay: NCI human tumor cell panel: OVCAR-5 (Ovarian Cancer); assay type: cell-based; details: OVCAR-5, Ovarian Cancer
KM12 = assay: NCI human tumor cell panel: KM12 (Colon Cancer); assay type: cell-based; details: KM12, Colon Cancer
COLO 205 = assay: NCI human tumor cell panel: COLO 205 (Colon Cancer); assay type: cell-based; details: COLO 205, Colon Cancer
K-562 = assay: NCI human tumor cell panel: K-562 (Leukemia); assay type: cell-based; details: K562, K-562, Leukemia
CAKI-1 = assay: NCI human tumor cell panel: CAKI-1 (Renal Cancer); assay type: cell-based; details: CAKI-1, Renal Cancer
RXF-393 = assay: NCI human tumor cell panel: RXF-393 (Renal Cancer); assay type: cell-based; details: RXF-393, Renal Cancer
EKVX = assay: NCI human tumor cell panel: EKVX (Non-Small Cell Lung Cancer); assay type: cell-based; details: Non-Small Cell Lung Cancer, read-out: Log10 GI50 (converted)
SK-MEL-2 = assay: NCI human tumor cell panel: SK-MEL-2 (Melanoma); assay type: cell-based; details: SK-MEL-2, Melanoma
SN12C = assay: NCI human tumor cell panel: SN12C (Renal Cancer); assay type: cell-based; details: Renal Cancer
786-0 = assay: NCI human tumor cell panel: 786-0 (Renal Cancer); assay type: cell-based; details: 786-0, Renal Cancer
RPMI-8226 = assay: NCI human tumor cell panel: RPMI-8226 (Leukemia); assay type: cell-based; details: RPMI-8226, Leukemia
OVCAR-8 = assay: NCI human tumor cell panel: OVCAR-8 (Ovarian Cancer); assay type: cell-based; details: OVCAR-8, Ovarian Cancer
DU-145 = assay: NCI human tumor cell panel: DU-145 (Prostate Cancer); assay type: cell-based; details: DU-145, Prostate Cancer
SW-620 = assay: NCI human tumor cell panel: SW-620 (Colon Cancer); assay type: cell-based; details: SW-620, Colon Cancer
HCT-15 = assay: NCI human tumor cell panel: HCT-15 (Colon Cancer); assay type: cell-based; details: HCT-15, Colon Cancer
HCC-2998 = assay: NCI human tumor cell panel: HCC-2998 (Colon Cancer); assay type: cell-based; details: HCC-2998, Colon Cancer, read-out: Log10 TGI (converted)
UO-31 = assay: NCI human tumor cell panel: UO-31 (Renal Cancer); assay type: cell-based; details: UO-31, Renal Cancer
SNB-75 = assay: NCI human tumor cell panel: SNB-75 (CNS Cancer); assay type: cell-based; details: SNB-75, CNS Cancer
NCI-H522 = assay: NCI human tumor cell panel: NCI-H522 (Non-Small Cell Lung Cancer)
BT-549 = assay: NCI human tumor cell panel: BT-549 (Breast Cancer); assay type: cell-based; details: BT-549, Breast Cancer
[1] = test system: panel of sixty different human tumor cell lines; assay: NCI human tumor cell panel: whole panel (mean graph summary); details: Homo sapiens
MDA-MB-231/ATCC = assay: NCI human tumor cell panel: MDA-MB-231/ATCC (Breast Cancer); assay type: cell-based; details: Homo sapiens, MDA-MB-231, MDA-MB-231/ATCC, Breast Cancer
SF-268 = assay: NCI human tumor cell panel: SF-268 (CNS Cancer); assay type: cell-based; details: SF-268, CNS Cancer
[2] = read-out: Log10 GI50 (converted)
[3] = read-out: Log10 TGI (converted)

## O=Cc1ccc(-c2ccc(-c3ccc(C=O)[se]3)s2)[se]1 [NSC 676630]
IGROV1; [2]
  GI50: 1.48 µM
IGROV1; [3]
  IC (TGI): > 100 µM
NCI-H226; [2]
  GI50: 0.191 µM
NCI-H226; [3]
  IC (TGI): 0.49 µM
T-47D
  IC (TGI): > 100 µM
SK-OV-3; [2]
  GI50: > 100 µM
SK-OV-3; [3]
  IC (TGI): > 100 µM
HL-60(TB)
  GI50: > 100 µM
LOX IMVI; [2]
  GI50: > 100 µM
LOX IMVI; [3]
  IC (TGI): > 100 µM
OVCAR-5; [2]
  GI50: 0.132 µM
OVCAR-5; [3]
  IC (TGI): 0.447 µM
KM12; [2]
  GI50: > 100 µM
KM12; [3]
  IC (TGI): > 100 µM
COLO 205; [2]
  GI50: 93.3 µM
COLO 205; [3]
  IC (TGI): > 100 µM
K-562; [2]
  GI50: 3.39 µM
K-562; [3]
  IC (TGI): > 100 µM
CAKI-1; [2]
  GI50: 0.741 µM
CAKI-1; [3]
  IC (TGI): 15.1 µM
RXF-393; [2]
  GI50: > 100 µM
RXF-393; [3]
  IC (TGI): > 100 µM
EKVX
  GI50: > 100 µM
SK-MEL-2; [2]
  GI50: > 100 µM
SK-MEL-2; [3]
  IC (TGI): > 100 µM
SN12C; [2]
  GI50: > 100 µM
SN12C; [3]
  IC (TGI): > 100 µM
786-0; [2]
  GI50: > 100 µM
786-0; [3]
  IC (TGI): > 100 µM
RPMI-8226; [2]
  GI50: > 100 µM
RPMI-8226; read-out: Log10 TGI
  IC (TGI): > 100 µM
OVCAR-8; [2]
  GI50: 33.1 µM
OVCAR-8; [3]
  IC (TGI): > 100 µM
DU-145; [2]
  GI50: > 100 µM
DU-145; [3]
  IC (TGI): > 100 µM
SW-620; [2]
  GI50: > 100 µM
SW-620; [3]
  IC (TGI): > 100 µM
HCT-15; [2]
  GI50: > 100 µM
HCT-15; [3]
  IC (TGI): > 100 µM
HCC-2998
  IC (TGI): 85.1 µM
UO-31; [2]
  GI50: > 100 µM
UO-31; [3]
  IC (TGI): > 100 µM
SNB-75; [2]
  GI50: 67.6 µM
SNB-75; [3]
  IC (TGI): > 100 µM
NCI-H522; NCI-H522, read-out: Log10 GI50 (converted)
  GI50: 20.9 µM
NCI-H522; NCI-H522, read-out: Log10 TGI
  IC (TGI): 53.7 µM
BT-549; [2]
  GI50: 63.1 µM
BT-549; [3]
  IC (TGI): > 100 µM
[1]; read-out: Delta Log10 GI50, whole panel, line Delta (converted)
  GI50: 26.3 µM
[1]; read-out: Delta Log10 LC50, whole panel, line Delta (converted)
  CC50: 85.1 µM
MDA-MB-231/ATCC; [2]
  GI50: > 100 µM
MDA-MB-231/ATCC; [3]
  IC (TGI): > 100 µM
SF-268; [2]
  GI50: > 100 µM
SF-268; [3]
  IC (TGI): > 100 µM
